Calls of active or inactive are those of the source. The rule behind the calls is not given here.
How the values were obtained:
[1] = target: Voltage-gated inwardly rectifying potassium channel KCNH2 (Homo sapiens, UniProt Q12809); assay: Inhibition of human ERG at holding potential of -80 mV to +40 mV
[2] = Cmax in Sprague-Dawley rat at 1 mg/kg, iv; assay type: ADME, organism-based; parameters: dose 1 mg/kg, route intravenous; conditions: in vivo
[3] = Half life in Sprague-Dawley rat at 1 mg/kg, iv; assay type: ADME, organism-based; parameters: dose 1 mg/kg, route intravenous; conditions: in vivo
[4] = Mutagenic activity in Salmonella Typhimurium TA100 assessed as number of spontaneous and drug-induced revertants after 48 hrs by Ames test; assay type: toxicity; conditions: salmonella enterica subsp. enterica serovar typhimurium
[5] = Ratio of drug level in brain to plasma in Sprague-Dawley rat; assay type: ADME
[6] = Oral bioavailability in Sprague-Dawley rat at 5 mg/kg, po; assay type: ADME, organism-based; conditions: in vivo
Mus musculus [7] = assay: Antiobesity activity in diet-induced obesity C57BL/6 mouse model assessed as reduction of body weight at 10 mg/kg, po qd for 14 days; assay type: functional; parameters: scale not given: the % may be the effect or the level left
Rattus norvegicus [8] = assay: AUC (0 to infinity) in Sprague-Dawley rat at 1 mg/kg, iv; assay type: ADME, organism-based, Plasma; parameters: time infinity, dose 1 mg/kg, route intravenous; conditions: in vivo
Rattus norvegicus [9] = assay: Clast in Sprague-Dawley rat at 1 mg/kg, iv; assay type: ADME, organism-based; parameters: dose 1 mg/kg, route intravenous; conditions: in vivo
Cytochrome P450 1A2 = target: T1, Cytochrome P450 1A2 (Homo sapiens, UniProt P05177); assay: Inhibition of CYP1A2 in human liver microsomes after 30 mins; assay type: ADME, Microsome
T1 sequence (P05177 whole entry): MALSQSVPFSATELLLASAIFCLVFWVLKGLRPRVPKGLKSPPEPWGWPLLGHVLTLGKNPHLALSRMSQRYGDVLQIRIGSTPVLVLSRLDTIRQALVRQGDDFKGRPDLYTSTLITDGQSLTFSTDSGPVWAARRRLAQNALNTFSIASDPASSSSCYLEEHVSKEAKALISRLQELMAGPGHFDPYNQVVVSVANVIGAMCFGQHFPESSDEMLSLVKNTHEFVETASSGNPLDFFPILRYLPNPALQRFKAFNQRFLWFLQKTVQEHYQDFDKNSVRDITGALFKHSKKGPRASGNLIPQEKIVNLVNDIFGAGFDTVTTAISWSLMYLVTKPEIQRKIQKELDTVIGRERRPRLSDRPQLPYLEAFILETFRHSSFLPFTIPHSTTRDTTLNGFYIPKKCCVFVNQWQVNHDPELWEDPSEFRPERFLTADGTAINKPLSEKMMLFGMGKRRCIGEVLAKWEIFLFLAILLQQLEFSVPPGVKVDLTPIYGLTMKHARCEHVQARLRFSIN

[10] = Cmax in Sprague-Dawley rat at 5 mg/kg, po; assay type: ADME, organism-based; parameters: dose 5 mg/kg, route oral; conditions: in vivo
Rattus norvegicus [11] = assay: Antiobesity activity in diet-induced obesity Sprague-Dawley rat model assessed as reduction of body weight administered at 10 mg/kg, po qd for 13 days; assay type: functional; parameters: scale not given: the % may be the effect or the level left
Nucleic Acid = assay: Induction of DNA damage up to 50 uM after 2 hrs by comet assay; assay type: nucleic-acid assay
Rattus norvegicus [12] = assay: Clast in Sprague-Dawley rat at 5 mg/kg, po; assay type: ADME, organism-based; parameters: dose 5 mg/kg, route oral; conditions: in vivo
[13] = Tmax in Sprague-Dawley rat at 5 mg/kg, po; assay type: ADME, organism-based; parameters: dose 5 mg/kg, route oral; conditions: in vivo
Rattus norvegicus [14] = assay: AUC (0 to infinity) in Sprague-Dawley rat at 5 mg/kg, po; assay type: ADME, organism-based, Plasma; parameters: time infinity, dose 5 mg/kg, route oral; conditions: in vivo
Cytochrome P450 2C9 = Cytochrome P450 2C9 (Homo sapiens, UniProt P11712); assay: Inhibition of CYP2C9 in human liver microsomes after 30 mins; assay type: ADME, Microsome
[15] = Clearance in Sprague-Dawley rat at 1 mg/kg, iv; assay type: ADME, organism-based; parameters: dose 1 mg/kg, route intravenous; conditions: in vivo
[16] = Half life in Sprague-Dawley rat at 5 mg/kg, po; assay type: ADME, organism-based; parameters: dose 5 mg/kg, route oral; conditions: in vivo
Cytochrome P450 2D6 = Cytochrome P450 2D6 (Homo sapiens, UniProt P10635); assay: Inhibition of CYP2D6 in human liver microsomes after 30 mins; assay type: ADME, Microsome
HCT-116 = assay: Cytotoxicity against human HCT116 cells; assay type: cell-based
[17] = Cytotoxicity against human HuH7 cells; assay type: cell-based; conditions: Huh-7
Mus musculus [18] = assay: Antiobesity activity in diet-induced obesity C57BL/6 mouse model assessed as reduction of body weight at 3 mg/kg, po qd for 13 days; assay type: functional; parameters: scale not given: the % may be the effect or the level left
Cannabinoid receptor 2 = Cannabinoid receptor 2 (Homo sapiens, UniProt P34972); assay: Displacement of [3H]WIN-55212-2 from human CB2 receptor expressed in CHO-K1 cells after 1 hr by liquid scintillation counting; assay type: cell-based
HEK293 = assay: Cytotoxicity against human HEK293 cells; assay type: cell-based
[19] = Selectivity ratio of IC50 for human CB2 receptor to IC50 for CB1 receptor in Sprague-Dawley rat cerebellum; assay type: tissue-based
Cytochrome P450 3A4 = Cytochrome P450 3A4 (Homo sapiens, UniProt P08684); assay: Inhibition of CYP3A4 in human liver microsomes after 30 mins; assay type: ADME, Microsome
Vero = assay: Cytotoxicity against african green monkey Vero cells; assay type: cell-based; conditions: Chlorocebus sabaeus
Cannabinoid receptor 1 = Cannabinoid receptor 1 (Rattus norvegicus, UniProt P20272)
Description: Displacement of [3H]CP-55940 from CB1 receptor in Sprague-Dawley rat cerebellum after 1 hr by liquid scintillation counting

Rattus norvegicus [20] = assay: Acute toxicity in rat assessed as mortality at 500 mg/kg, po qd for 7 days; assay type: organism-based; parameters: dose 500 mg/kg, route oral; conditions: in vivo, 168 h
Rattus norvegicus [21] = assay: Acute toxicity in po dosed rat; assay type: organism-based; conditions: in vivo
Mus musculus [22] = assay: Antidiabetic activity in diet-induced obesity mouse model at 10 mg/kg, po qd for 14 days; assay type: functional, organism-based; parameters: dose 10 mg/kg
Rattus norvegicus [23] = assay: Acute toxicity in rat assessed as mortality at 1000 mg/kg, po qd for 7 days; assay type: organism-based; parameters: dose 1000 mg/kg, route oral; conditions: in vivo, 168 h
Mus musculus [24] = assay: Antiobesity activity in po dosed diet-induced obesity C57BL/6 mouse model assessed as reduction of body weight administered qd for 13 days; assay type: functional, organism-based
Mus musculus [25] = assay: Antiobesity activity in diet-induced obesity C57BL/6 mouse model assessed as reduction of body weight at 10 mg/kg, po qd for 13 days; assay type: functional; parameters: scale not given: the % may be the effect or the level left
[26] = Acute toxicity in po dosed rat assessed as mortality; assay type: organism-based; conditions: in vivo
Rattus norvegicus [27] = assay: Acute toxicity in rat assessed as mortality at 2000 mg/kg, po; assay type: organism-based; parameters: dose 2000 mg/kg, route oral; conditions: in vivo
Rattus norvegicus [28] = assay: Acute toxicity in rat assessed as mortality at 1500 mg/kg, po; assay type: organism-based; parameters: dose 1500 mg/kg, route oral; conditions: in vivo
Mus musculus [29] = assay: Antidiabetic activity in ob/ob mouse at 10 mg/kg, po qd for 14 days; assay type: functional, organism-based; parameters: dose 10 mg/kg
Mus musculus [30] = assay: Antidiabetic activity in db/db mouse at 10 mg/kg, po qd for 14 days; assay type: functional, organism-based; parameters: dose 10 mg/kg
Rattus norvegicus [31] = assay: Acute toxicity in rat assessed as mortality at 250 mg/kg, po qd for 7 days; assay type: organism-based; parameters: dose 250 mg/kg, route oral; conditions: in vivo, 168 h
Mus musculus [32] = assay: Antiobesity activity in po dosed diet-induced obesity C57BL/6 mouse model assessed as reduction mean white adipocytes diameter qd for 14 days; assay type: functional, organism-based
Mus musculus [33] = assay: Antiobesity activity in diet-induced obesity C57BL/6 mouse model assessed as reduction of body weight at 20 mg/kg, po qd for 13 days; assay type: functional; parameters: scale not given: the % may be the effect or the level left
Rattus norvegicus [34] = assay: Acute toxicity in rat assessed as mortality at 125 mg/kg, po qd for 7 days; assay type: organism-based; parameters: dose 125 mg/kg, route oral; conditions: in vivo, 168 h

Chain of Cannabinoid receptor 2 (P34972 whole entry): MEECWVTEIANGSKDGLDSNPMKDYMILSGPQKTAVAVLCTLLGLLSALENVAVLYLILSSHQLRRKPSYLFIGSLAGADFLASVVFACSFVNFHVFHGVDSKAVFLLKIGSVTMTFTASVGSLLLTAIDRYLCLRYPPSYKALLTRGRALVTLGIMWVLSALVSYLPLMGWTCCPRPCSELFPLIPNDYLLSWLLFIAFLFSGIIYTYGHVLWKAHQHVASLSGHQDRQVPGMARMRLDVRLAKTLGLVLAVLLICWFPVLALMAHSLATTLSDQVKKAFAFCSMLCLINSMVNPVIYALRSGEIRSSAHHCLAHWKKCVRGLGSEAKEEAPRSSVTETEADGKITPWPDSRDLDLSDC
Chain of Cytochrome P450 2D6 (P10635 whole entry): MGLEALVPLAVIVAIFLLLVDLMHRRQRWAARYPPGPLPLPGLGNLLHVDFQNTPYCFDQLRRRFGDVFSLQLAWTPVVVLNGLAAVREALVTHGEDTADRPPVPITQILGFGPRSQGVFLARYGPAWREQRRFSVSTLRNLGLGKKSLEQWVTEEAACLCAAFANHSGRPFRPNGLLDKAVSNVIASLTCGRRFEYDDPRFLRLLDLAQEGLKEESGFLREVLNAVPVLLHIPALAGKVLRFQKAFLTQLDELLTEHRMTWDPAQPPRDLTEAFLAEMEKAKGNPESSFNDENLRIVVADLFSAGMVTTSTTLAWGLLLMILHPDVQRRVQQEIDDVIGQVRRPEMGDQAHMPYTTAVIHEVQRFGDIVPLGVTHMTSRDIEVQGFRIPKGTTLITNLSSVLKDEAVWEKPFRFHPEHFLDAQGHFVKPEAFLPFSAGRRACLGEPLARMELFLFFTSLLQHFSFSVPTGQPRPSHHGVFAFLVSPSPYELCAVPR
Chain of Cytochrome P450 3A4 (P08684 whole entry): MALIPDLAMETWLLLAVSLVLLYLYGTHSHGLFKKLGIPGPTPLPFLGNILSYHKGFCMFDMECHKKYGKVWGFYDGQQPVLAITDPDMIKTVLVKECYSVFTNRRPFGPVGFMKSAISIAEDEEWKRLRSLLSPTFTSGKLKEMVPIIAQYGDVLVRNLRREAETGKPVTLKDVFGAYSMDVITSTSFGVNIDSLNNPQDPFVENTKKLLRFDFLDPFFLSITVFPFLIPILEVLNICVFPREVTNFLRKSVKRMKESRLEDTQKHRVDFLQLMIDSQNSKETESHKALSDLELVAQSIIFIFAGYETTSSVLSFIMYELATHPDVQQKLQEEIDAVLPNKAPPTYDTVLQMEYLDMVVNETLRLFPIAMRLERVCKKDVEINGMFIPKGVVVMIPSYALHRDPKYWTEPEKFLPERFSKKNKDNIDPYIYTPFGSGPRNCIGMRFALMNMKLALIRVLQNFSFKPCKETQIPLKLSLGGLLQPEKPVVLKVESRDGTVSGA
Chain of Cytochrome P450 2C9 (P11712 whole entry): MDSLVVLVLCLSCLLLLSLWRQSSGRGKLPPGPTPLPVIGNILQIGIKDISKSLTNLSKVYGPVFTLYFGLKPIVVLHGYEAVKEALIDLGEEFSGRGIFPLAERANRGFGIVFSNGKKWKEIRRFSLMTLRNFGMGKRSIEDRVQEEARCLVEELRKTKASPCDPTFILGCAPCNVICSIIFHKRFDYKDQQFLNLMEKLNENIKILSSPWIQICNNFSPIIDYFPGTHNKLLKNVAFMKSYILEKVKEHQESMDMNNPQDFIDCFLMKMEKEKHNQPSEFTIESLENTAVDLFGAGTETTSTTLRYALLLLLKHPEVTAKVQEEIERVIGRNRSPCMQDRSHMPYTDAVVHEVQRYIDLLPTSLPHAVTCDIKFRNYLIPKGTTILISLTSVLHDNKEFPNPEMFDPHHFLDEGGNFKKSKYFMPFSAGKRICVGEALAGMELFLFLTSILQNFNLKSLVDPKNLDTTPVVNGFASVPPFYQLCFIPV
Chain of Voltage-gated inwardly rectifying potassium channel KCNH2 (Q12809 whole entry): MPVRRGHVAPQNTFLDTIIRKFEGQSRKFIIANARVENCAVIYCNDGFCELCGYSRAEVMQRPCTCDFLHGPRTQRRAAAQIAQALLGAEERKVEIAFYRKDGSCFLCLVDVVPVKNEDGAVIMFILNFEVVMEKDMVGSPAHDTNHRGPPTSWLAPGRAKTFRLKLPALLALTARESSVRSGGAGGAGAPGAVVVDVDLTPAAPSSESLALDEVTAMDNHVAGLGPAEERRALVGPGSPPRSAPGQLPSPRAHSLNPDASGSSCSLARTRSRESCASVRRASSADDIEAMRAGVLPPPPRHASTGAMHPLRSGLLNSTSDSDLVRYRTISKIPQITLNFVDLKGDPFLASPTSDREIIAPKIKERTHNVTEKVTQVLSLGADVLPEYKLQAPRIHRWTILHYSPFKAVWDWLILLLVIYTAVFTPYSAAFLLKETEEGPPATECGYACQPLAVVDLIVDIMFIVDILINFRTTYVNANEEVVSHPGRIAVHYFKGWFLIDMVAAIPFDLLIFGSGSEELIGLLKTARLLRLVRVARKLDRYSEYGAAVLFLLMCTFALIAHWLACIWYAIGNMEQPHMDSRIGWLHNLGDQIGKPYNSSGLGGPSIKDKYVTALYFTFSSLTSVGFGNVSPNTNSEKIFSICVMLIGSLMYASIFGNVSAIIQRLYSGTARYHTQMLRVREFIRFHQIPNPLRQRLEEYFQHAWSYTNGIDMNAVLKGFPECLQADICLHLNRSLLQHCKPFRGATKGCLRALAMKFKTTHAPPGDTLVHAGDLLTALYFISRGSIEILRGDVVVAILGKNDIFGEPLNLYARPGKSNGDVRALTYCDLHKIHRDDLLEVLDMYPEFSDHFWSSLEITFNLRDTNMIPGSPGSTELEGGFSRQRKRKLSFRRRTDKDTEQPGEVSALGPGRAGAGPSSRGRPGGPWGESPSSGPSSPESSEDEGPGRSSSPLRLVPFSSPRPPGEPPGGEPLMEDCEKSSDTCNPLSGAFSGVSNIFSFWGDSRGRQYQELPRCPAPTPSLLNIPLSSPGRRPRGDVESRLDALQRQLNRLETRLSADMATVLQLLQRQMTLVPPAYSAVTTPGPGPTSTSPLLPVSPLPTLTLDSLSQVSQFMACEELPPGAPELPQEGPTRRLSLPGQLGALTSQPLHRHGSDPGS
Chain of Cannabinoid receptor 1 (P20272 whole entry): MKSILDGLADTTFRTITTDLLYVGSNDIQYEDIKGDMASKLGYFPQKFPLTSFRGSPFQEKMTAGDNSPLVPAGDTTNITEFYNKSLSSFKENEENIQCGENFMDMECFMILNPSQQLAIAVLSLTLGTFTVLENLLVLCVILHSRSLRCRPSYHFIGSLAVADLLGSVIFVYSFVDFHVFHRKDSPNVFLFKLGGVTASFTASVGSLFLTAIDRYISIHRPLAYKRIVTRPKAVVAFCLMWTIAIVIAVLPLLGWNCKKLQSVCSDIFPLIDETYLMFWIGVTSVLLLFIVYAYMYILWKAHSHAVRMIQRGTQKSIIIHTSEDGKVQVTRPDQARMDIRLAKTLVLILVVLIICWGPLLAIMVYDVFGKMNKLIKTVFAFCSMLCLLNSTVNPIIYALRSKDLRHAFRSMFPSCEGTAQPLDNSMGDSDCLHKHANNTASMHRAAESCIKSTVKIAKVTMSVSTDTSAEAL

C[C@H](NC(=O)C(C)(C)Oc1ccc(C(F)(F)F)cn1)[C@@H](Cc1ccc(Cl)cc1)c1cccc(C#N)c1 [TARANABANT]
IC50 [1]: 14.2 µM | Cmax [2]: 470 ng/mL | half-life [3]: 2.76 h | Activity [4]: Non-toxic | BPR [5]: 52% | bioavailability [6]: 67.6% | Activity (Mus musculus [7]): 29.55% | AUC (Rattus norvegicus [8]): 24.75 min/µg/mL | Clast (Rattus norvegicus [9]): 10 ng/mL | IC50 (Cytochrome P450 1A2): > 20 µM | Cmax [10]: 360 ng/mL | Activity (Rattus norvegicus [11]): 17.16% | Activity (Nucleic Acid): Non-toxic | Clast (Rattus norvegicus [12]): 20 ng/mL | Tmax [13]: 0.5 h | AUC (Rattus norvegicus [14]): 83.64 min/µg/mL | IC50 (Cytochrome P450 2C9): 0.93 µM | clearance [15]: 40.8 mL/min/kg | half-life [16]: 14.8 h | IC50 (Cytochrome P450 2D6): 0.59 µM

FC(F)(F)C1(c2nnc(-c3nn(-c4ccc(Cl)cc4Cl)c(-c4ccc(Cl)cc4)c3Cn3cncn3)s2)CCC1
IC50 [1]: > 10 µM | Activity [4]: Non-toxic | EC50 (HCT-116): > 100 µM | Activity (Mus musculus [7]): 23.68% | IC50 (Cytochrome P450 1A2): > 20 µM | EC50 [17]: > 100 µM | Activity (Rattus norvegicus [11]): 14.43% | Activity (Nucleic Acid): Non-toxic | Activity (Mus musculus [18]): 34.45% | IC50 (Cannabinoid receptor 2): 0.505 µM | EC50 (HEK293): > 100 µM | Ratio IC50 [19]: 175 | IC50 (Cytochrome P450 2C9): > 20 µM | IC50 (Cytochrome P450 3A4): > 20 µM | EC50 (Vero): > 100 µM | IC50 (Cytochrome P450 2D6): > 20 µM

CC(C)(C)c1nnc(-c2nn(-c3ccc(Cl)cc3Cl)c(-c3ccc(Br)cc3)c2Cn2cncn2)s1
IC50 (Cannabinoid receptor 1): 0.00154 µM | Activity (Mus musculus [7]): 23.68% | IC50 (Cytochrome P450 1A2): 2.7 µM | Activity (Nucleic Acid): Non-toxic | IC50 (Cannabinoid receptor 2): 0.43 µM | IC50 (Cytochrome P450 2C9): 2.6 µM | IC50 (Cytochrome P450 3A4): > 20 µM | IC50 (Cytochrome P450 2D6): > 20 µM

Cc1c(C(=O)NN2CCCCC2)nn(-c2ccc(Cl)cc2Cl)c1-c1ccc(Cl)cc1 [RIMONABANT]
IC50 [1]: 4.8 µM | Cmax [2]: 300 ng/mL | half-life [3]: 3.09 h | Activity [4]: Non-toxic | bioavailability [6]: 53.1% | Activity (Mus musculus [7]): 18.02% | AUC (Rattus norvegicus [8]): 12.59 min/µg/mL | Clast (Rattus norvegicus [9]): 10 ng/mL | IC50 (Cytochrome P450 1A2): > 20 µM | Cmax [10]: 290 ng/mL | Activity (Rattus norvegicus [11]): 10.61% | Activity (Nucleic Acid): Non-toxic | Tmax [13]: 0.5 h | AUC (Rattus norvegicus [14]): 33.4 min/µg/mL | clearance [15]: 82.4 mL/min/kg | half-life [16]: 8.23 h | IC50 (Cytochrome P450 3A4): > 20 µM | IC50 (Cytochrome P450 2D6): > 20 µM

CC(C)(C)c1nnc(-c2nn(-c3ccccc3Cl)c(-c3ccc(Br)cc3)c2Cn2cncn2)s1
IC50 [1]: 10.5 µM | Cmax [2]: 2500 ng/mL | half-life [3]: 5.3 h | Activity [4]: Non-toxic | Activity (Rattus norvegicus [20]): Non-toxic | Activity (Rattus norvegicus [21]): 125 mg/kg | IC50 (Cannabinoid receptor 1): 0.000681 µM | EC50 (HCT-116): > 100 µM | BPR [5]: 58% | bioavailability [6]: 61.7% | Activity (Mus musculus [7]): 32.55% | AUC (Rattus norvegicus [8]): 119.9 min/µg/mL | Clast (Rattus norvegicus [9]): 50 ng/mL | IC50 (Cytochrome P450 1A2): > 20 µM | EC50 [17]: > 100 µM | Activity (Mus musculus [22]): Active | Cmax [10]: 1530 ng/mL | Activity (Rattus norvegicus [11]): 15.59% | Activity (Rattus norvegicus [23]): Non-toxic | Activity (Mus musculus [24]): Dose-dependent effect | Activity (Nucleic Acid): Non-toxic | Activity (Mus musculus [25]): 34.9% | LD50 [26]: > 2000 mg/kg | Activity (Rattus norvegicus [27]): Non-toxic | Activity (Rattus norvegicus [28]): Non-toxic | Activity (Mus musculus [29]): Active | Activity (Mus musculus [18]): Active | Activity (Mus musculus [30]): Active | IC50 (Cannabinoid receptor 2): 0.549 µM | Clast (Rattus norvegicus [12]): 30 ng/mL | Tmax [13]: 1 h | EC50 (HEK293): > 100 µM | Ratio IC50 [19]: 807 | AUC (Rattus norvegicus [14]): 369.72 min/µg/mL | IC50 (Cytochrome P450 2C9): > 20 µM | clearance [15]: 10.7 mL/min/kg | half-life [16]: 7.11 h | IC50 (Cytochrome P450 3A4): > 20 µM | EC50 (Vero): > 100 µM | Activity (Rattus norvegicus [31]): Non-toxic | Activity (Mus musculus [32]): Dose-dependent effect | Activity (Mus musculus [33]): 38.06% | IC50 (Cytochrome P450 2D6): > 20 µM | Activity (Rattus norvegicus [34]): Non-toxic
